Data taken from patent US6426367B1, “Methods for selectively occluding blood supplies to neoplasias” (EFA Sciences LLC, priority 1999, dated 2002).
Like-named read-outs stand apart in the source and are kept apart here.

Columns and labels:
[1] = tested on: tumor cells; conditions: cited from earlier work; for differential cytotoxic effect, tumor cells versus normal cells: well defined culture conditions
[2] = tested on: human gliomas; conditions: direct intra-tumoral administration; cited from earlier work
[3] = tested on: tumor-feeding vessels
Procedure: (§1) Studies were conducted in 5 human patients with stage 4 neoplastic disease. Two of the patients had primary hepatoma (patients 1 and 2), two had giant cell tumor of the bone (patients 3 and 4) and one had renal cell carcinoma (patient 5).
(§2) The lithium salt of GLA was obtained from Scotia Pharmaceuticals, U.K. The PUFA salt was dissolved in sterile saline, sterile phosphate buffered saline (PBS, pH 7.4) or dilute ethanol in saline (final concentration <0.02% ethanol). The final concentration of PUFA in these solutions was approximately 25%. The PUFA solution was mixed with an iodized lymphographic oil (LIPIODOL ULTRA FLUIDE®, Laboratoire Guerbet, Paris, France), in a ratio of between 1:1.5 and 1:3 (volume/volume). In some cases, the PUFA was modified by covalent conjugation (e.g., amide bond) to the iodized lymphographic oil. In other cases the PUFA salt was unmodified, and was diluted directly into the lymphographic agent without conjugation. The PUFA and lymphographic oil mixture was prepared under sterile conditions immediately prior to use.
(§3) Patients were admitted into the hospital for the study. A proximal artery suppling a major portion of the blood supply to the tumor was identified. Catheterization of the major artery from which the proximal artery arises was performed under local anaesthesia. In patients 1 and 2 (with hepatomas), the tip of the catheter was positioned in the right hepatic artery via the right femoral artery. In patient 3 (with giant cell tumor of the right lower end of the femur), the tip of the catheter was positioned in the right femoral/popliteal artery. In patient 4 (with giant cell tumor of the left scapula), the tip of the catheter was positioned in the left subdlavian/axillary arteries. In patient 5 (with left kidney tumor), the tip of the catheter was positioned in the left renal artery. Conjugated PUFA salt was prepared fresh, just prior to injection. Radiographic and CT scan examinations were performed immediately after the injection and at periodic intervals in all the five patients.
(§4) In order to determine how the arterial supply to the tumor tissue was influenced by the injection of PUFA salt, angiography was performed and recorded during and immediately after the procedure, and at periodic intervals thereafter.
(§5) Patients 1 and 2 with hepatoma were administered total doses of 1.6 gm and 0.75 gm respectively (the dose refers to the amount of Li-GLA) of PUFA salt into the right hepatic artery through the right femoral route. Patient 3, with giant cell tumor of the lower end of the right femur, underwent right femoral artery catheterization and the tip of the catheter was positioned in the popliteal artery to deliver 500 mg of PUFA salt. Patient 4, who had giant cell tumor of the left scapula, received PUFA salt by selective cannulation of the left subdlavian artery, through the femoral route, from which the tumor-feeding vessel was arising and was given 660 mg of PUFA salt. Patient 5, with renal tumor, received 750 mg of PUFA salt through the right femoral route into the left renal artery from which the tumor-feeding vessels were arising. In all the patients, the administration of PUFA salt was done as swiftly as possible. During the administration of PUFA salt, the vital signs of each patient were monitored.

[4] = tested on: stage 4 neoplastic disease (hepatoma, giant cell tumor of the bone, renal cell carcinoma)
Procedure: as §1, §2, §3
as §5, with “Patient 5, with renal tumor, received 750 mg of PUFA salt through the right femoral route into the left renal artery from which the tumor-feeding vessels were arising. In all the patients, the administration of PUFA salt was done as swiftly as possible.” left out

[5] = Procedure: as §3, §5
[6] = tested on: normal arteries including the celiac, subclavian and popliteal arteries
Procedure: Moreover, in several other patients, a PUFA was injected into normal arteries including the celiac, subclavian and popliteal arteries.
as §4

[7] = patient 4, seven and a half years after injection

In the case of `CCCCC/C=C\C/C=C\C/C=C\C/C=C\CCCC(=O)O` [AA, arachidonic acid], the “differential cytotoxic effect, tumor cells versus normal cells” value (from here on “differential cytotoxic effect”) [1] is listed as “marked differential cytotoxic effect”.
For `CC/C=C\C/C=C\C/C=C\C/C=C\C/C=C\C/C=C\CCC(=O)O` [DHA, docosahexaenoic acid], the “differential cytotoxic effect” value [1] is listed as “marked differential cytotoxic effect”.
For `CC/C=C\C/C=C\C/C=C\C/C=C\C/C=C\CCCC(=O)O` [EPA, eicosapentaenoic acid], the “differential cytotoxic effect” value [1] is listed as “marked differential cytotoxic effect”.
In the case of `CCCCC/C=C\C/C=C\C/C=C\CCCCC(=O)O` [GLA, gamma-linolenic acid], the “selectivity of tumoricidal action in mixed culture” value ([1]; normal and tumor cells grown together) is given as “more selective tumoricidal action compared to AA and EPA”, the “differential cytotoxic effect” value [1] is given as “marked differential cytotoxic effect” and the “effect on human gliomas” value [2] is given as “can regress human gliomas”. The side-effects [2] was “without significant side-effects”.
With `CCCCC/C=C\C/C=C\C/C=C\CCCCC(=O)[O-].[Li+]` [PUFA salt, lithium salt of GLA] the “occlusion of the tumor-feeding vessels following PUFA salt injection” value ([3]; all 5 patients, intra-arterial, 0.5-1.6 gm Li-GLA mixed with or conjugated to LIPIODOL) was “total occlusion of the tumor-feeding vessels”, the “speed of occlusion of tumor-feeding vessels” value ([3]; all types of tumor-feeding vessels, irrespective of size) was “almost instantaneously” and the “occlusion of tumor-feeding vessels in third angiogram” value ([3]; patient 1, hepatoma, 1 week after second dose (0.5 gm), 11th day after first dose) was “almost complete occlusion”. For the same compound, the “tumor blush in repeat angiogram” value ([3]; patient 1, hepatoma, 4 days after first dose) was “much reduced”, the “tumor-feeding vessels visible on repeat angiogram” value ([3]; patient 1, hepatoma, 28 days after injection) was “no tumor-feeding vessels could be seen” and the “tumor-feeding vessels occluded following the first injection” value ([3]; patient 1, hepatoma, first dose 1.1 gm, right hepatic artery) was “More than 50%”. For the same compound, the “timing of occlusion of tumor-feeding vessels” value ([3]; patient 2, hepatoma) was “essentially simultaneously with the injection”, the “occlusion of tumor-feeding vessels immediately after injection” value ([3]; patient 2, hepatoma, 750 mg, right hepatic artery) was “complete occlusion” and the “state of occluded tumor-feeding vessels in repeat angiogram” value ([3]; patient 3, 10 days after injection) was “remained closed”. The “occlusion of tumor-feeding vessels immediately after injection” value ([3]; patient 3, giant cell tumor of right femur, 500 mg, femoral/popliteal artery) was “Complete occlusion”, the “occlusion of tumor-feeding vessels immediately after administration” value ([3]; patient 4, giant cell tumor of left scapula, 660 mg, left subclavian artery) was “Complete occlusion” and the “state of tumor-feeding vessels in follow-up angiogram” value [3, 7] was “still occluded”. For the same compound, the “occlusion of tumor-feeding arteries” value ([3]; patient 5, renal cell carcinoma, 750 mg, renal artery) was “Complete occlusion”, the “weight gain after injection” value ([4]; patient 1, hepatoma, 6 months following the injection) was > 10 kgs and the “reduction in the size of the hepatoma” value ([4]; patient 1, one month after the first injection) was “More than 50%”. The “state of the tumor mass at follow-up” value [4, 7] was “completely calcified”, the survival after injection ([4]; patient 5, advanced renal cell carcinoma with secondary tumors) was 3 months and the “side-effects due to the therapy” value ([5]; all 5 patients) was “no significant side-effects”. The “tolerability of the treatment” value ([5]; all 5 patients) was “tolerated the treatment well”, the “biochemical tests after administration” value ([5]; all patients) was “normal” and the side-effect observed ([5]; during and immediately after the injection) was “mild feeling of warmth followed by pain at the site of the tumor”. For the same compound, the “time until pain subsided” value ([5]; patient 2, mild to moderate pain in the hepatic region, NSAIDs given) was 24 to 48 h, the “occlusion of normal arteries feeding the normal lower pole of the kidney” value ([6]; patient 5, 750 mg, renal artery) was “without any occlusion” and the “occlusion of normal vasculature feeding non-neoplastic tissues” value ([6]; patients treated with PUFA salt, angiograms) was “No occlusion”. The “spasms or occlusions of normal arteries after injection” value ([6]; several other patients, injection into celiac, subclavian and popliteal arteries) was “no spasms or occlusions”.
